This passage reports vmax and Km results from paper PMC8998618, “A Pharmacokinetic and Metabolism Study of the TRPC6 Inhibitor SH045 in Mice by LC-MS/MS” (International Journal of Molecular Sciences, 2022).

This data set can be described thus: NADPH-dependent microsomal conversion, Michaelis-Menten kinetics (HLM). The conditions noted are these: HLM 0.5 mg/mL protein, SH045 0.5 to 100 µM, Lineweaver-Burk. The format is in vitro ADME, human. The method, then:
For determination of vmax and Michaelis-Menten constant Km of the NADPH-dependent microsomal depletion of SH045, incubations in MLM and HLM were performed. Testosterone instead of SH045 was used as positive control (Supplementary Materials SM6).
Negative controls were obtained by omission of respective components. The overall velocity (v) of degradation was calculated from altered SH045 concentration (∆c) obtained from reduction peak area ratio of SH045 as: v = ∆c/incubation time × concentration of enzyme (nmol/min × mg). Mean maximum rate vmax and Km were calculated using Lineweaver-Burk transformation. […]
The tissue binding of SH045 was analyzed exemplarily in lung, liver and kidney homogenate using ultrafiltration [5]. […] 20 µL of the mixture and the filtrate were analyzed for SH045. […]
Testosterone (10 µM in ACN/DPBS 2/3, v/v) instead of SH045 was used as positive control and analyzed by an appropriate HPLC method with UV detection.
Negative controls contained either no NADPH, no MLM or HLM or none of them. The overall velocity (v) of degradation was calculated from altered SH045 concentration (∆c) obtained from reduction peak area ratio of SH045 as: v = ∆c / incubation time × concentration of enzyme × volume (nmol/ min × mg). Mean maximum rate vmax and Michaelis-Menten constant Km were calculated using Lineweaver-Burk transformation. […]

The structures appear in SMILES notation.

Regarding `C=C[C@@](C)(O)CC[C@H]1C(=C)C[C@H](OC(=O)NC)[C@H]2C(C)(C)CCC[C@]12C` [SH045, (1S,4S,4aR,8aS)-4-((S)-3-Hydroxy-3-methylpent-4-en-1-yl)-4a,8,8-trimethyl-3-methylenedecahydronaphthalen-1-yl methylcarbamate], the vmax was 0.8 ± 0.1 nmol/min/mg. Under “human, human liver microsomes”, the Km at 10 min came out at 4.1 ± 0.8 µM.
